Test results from patent US12558324B2, “Application of R-ketamine and salt thereof as pharmaceuticals” (National University Corporation Chiba University, priority 2013, dated 2026).

Columns and labels:
Control C57/B6 mice [1] = test: Locomotion-enhancing effect in control mice (side effect); assay type: in vivo; details: for locomotion (count/10 min) after injection: vs saline
Description: An effect of ketamine on the locomotion of mice was tested using SCANET MV-40 ([…] Co., Ltd., Toyama, Japan). Specifically, the locomotion was measured for a total of 180 minutes, i.e., 60 minutes before injection to 120 minutes after injection, and calculated as a locomotion per 10 minutes.

Control C57/B6 mice [2] = test: Conditioned place preference test in control mice (dependence); details: injected on day 4, 6, 8, evaluation on day 11, vs saline
Description: 15-minute habituation was performed for 3 days. Then, 30-minute conditioning was performed on day 4 to day 10, and a behavioral evaluation test was performed on day 11. Saline was injected on day 5, day 7, and day 9. […] In each of the groups, the injection was performed three times, i.e., on day 4, day 6, and day 8. Saline means a group injected with saline. In the group, the injection was performed three times, i.e., on day 5, day 7, and day 9.
The place preference test was performed using a conditioned place preference test apparatus (BrainSienceIdea Co., Ltd., Osaka, Japan).

[3] = tested on: social defeat stress mice; test: 1% sucrose preference test (SPT) in social defeat stress mice; details: for sucrose consumption preference in the SPT: 10 mg/kg i.p. single injection, vs saline
Description: (§1) The TST was performed as described below. […] The FST was performed as described below. […] The cages were cleaned between testing session.

[4] = tested on: mice exposed neonatally to DEX; test: Tail suspension test (TST) in DEX-treated mice; details: for immobility time in the TST: DEX-treated juvenile mice, 10 mg/kg i.p. single injection, vs saline
Description: (§2) On the final day of this period, the females were placed in isolation and checked daily around the expected delivery day. The day of birth was defined as day 0. The mice were injected intraperitoneally with DEX (Wako Pure Chemical Industries, Ltd., Tokyo, Japan) dissolved in saline on day 1, day 2, and day 3 at doses of 0.5 mg/kg body weight, 0.3 mg/kg body weight, and 0.1 mg/kg body weight, respectively. In addition, normal controls were injected with equal volumes (10 ml/kg) of saline.
as §1

[5] = tested on: social defeat stress mice; test: Tail suspension test (TST) in social defeat stress mice; details: for immobility time in the TST: 10 mg/kg i.p. single injection, vs saline; for antidepressant effects compared to S(+)-ketamine, TST: 10 mg/kg i.p.
Description: as §1

[6] = tested on: social defeat stress mice; test: Forced swimming test (FST) in social defeat stress mice; details: for immobility time in the FST: 10 mg/kg i.p. single injection, vs saline; for antidepressant effects compared to S(+)-ketamine, FST: 10 mg/kg i.p.
Description: as §1

[7] = Non Patent Literature 12; cited from earlier work
[8] = tested on: treatment-resistant patients with MDD; details: cited from earlier work; for effective oral dose in patients with depression: Non Patent Literatures 15 and 16
[9] = tested on: mice exposed neonatally to DEX; test: Forced swimming test (FST) in DEX-treated mice; details: for immobility time in the FST: DEX-treated juvenile mice, 10 mg/kg i.p. single injection, vs saline
Description: as §2, §1

healthy volunteers = details: Non Patent Literature 13, cited from earlier work; for cerebral metabolic rates of glucose (CMRglu), PET: intravenous infusion of 15 mg for 5 min, then 0.014 to 0.02 mg/kg/min for 53 min (S), equimolar doses (R)
[10] = Non Patent Literature 12; cited from earlier work; remark: listed apart in the source
Control C57/B6 mice [11] = test: Prepulse inhibition test in control mice (side effect); details: 5, 10, or 20 mg/kg, prepulses 69, 73, 77, 81 dB before 110-dB pulse, vs saline
Description: PP69, PP73, PP77, and PP81 mean that stimuli at 69, 73, 77, and 81 dB for more than 20 milliseconds were presented 100 milliseconds before a 110-dB pulse, respectively. Data analysis was performed by Wilks Lambda, which is multivariate analysis of variance.
The prepulse inhibition test was performed using a startle response system (SR-LAB, SanDiego Instruments, San Diego, CA, United States).

[12] = tested on: treatment-resistant obsessive-compulsive disorder and treatment-resistant posttraumatic stress disorder; details: treatment-resistant patients; Non Patent Literatures 6 to 8; cited from earlier work
[13] = known property of both isomers; cited from earlier work

## CN[C@]1(c2ccccc2Cl)CCCCC1=O.Cl [S(+)-ketamine, S(+)-ketamine hydrochloride]
Control C57/B6 mice [1]; 10 mg/kg or 20 mg/kg
  time after injection at which enhanced locomotion returned to a normal value: 30 min
Control C57/B6 mice [1]; 10 mg/kg or 20 mg/kg, 10 minutes and 20 minutes after the injection
  locomotion (count/10 min) after injection: significant increase in locomotion
Control C57/B6 mice [2]; 5, 10, or 20 mg/kg
  conditioned place preference test score (CPP score): increased the CPP score in a dose-dependent manner
[3]; 1 day after injection
  sucrose consumption preference in the SPT: the sucrose consumption preference significantly increased
[3]; 6 days after injection
  sucrose consumption preference in the SPT: significantly restored the sucrose consumption preference
[4]; 27 hours after injection
  immobility time in the TST: markedly reduced the immobility time
[4]; 7 days after injection
  immobility time in the TST: did not reduce the immobility time
[5]; 2 days after injection
  immobility time in the TST: markedly reduced the immobility time
[5]; 7 days after injection
  immobility time in the TST: significantly reduced the immobility time
[6]; 2 days after injection
  immobility time in the FST: markedly reduced the immobility time
[6]; 7 days after injection
  immobility time in the FST: significantly reduced the immobility time
[7]
  anesthetic effect as compared to R-isomer: 3- to 4 fold
[8]; 0.25 mg/kg, i.v., treatment-resistant patients with MDD, case report, Non Patent Literature 14
  antidepressant effects compared to RS(+/−)-ketamine (0.5 mg/kg, i.v.): weaker than those of RS(+/−)-ketamine
[8]
  effective oral dose in patients with depression: 1.25 mg/kg
[9]; 29 hours after injection
  immobility time in the FST: markedly reduced the immobility time
[9]; 7 days after injection
  immobility time in the FST: did not reduce the immobility time
Healthy volunteers
  cerebral metabolic rates of glucose (CMRglu), PET: increased cerebral metabolic rates of glucose
[10]
  psychotomimetic side effects compared to R-isomer: greater psychotomimetic side effects than R-isomer
Control C57/B6 mice [11]
  prepulse inhibition: disrupted prepulse inhibition in a dose-dependent manner

## CNC1(c2ccccc2Cl)CCCCC1=O.Cl (racemic) [RS(+/−)-ketamine, ketamine hydrochloride]
Control C57/B6 mice [2]; 10 mg/kg
  conditioned place preference test score (CPP score): significantly increased the CPP score
[12]
  effect in obsessive-compulsive disorder and PTSD: effective
[8]; Non Patent Literature 9
  effect on suicide ideation: effect of inhibiting suicide ideation
[8]; effects may last, Non Patent Literatures 3, 4, and 11
  duration of clinical antidepressant effects (other reports): ≥ 2 weeks
[8]; intranasal, treatment-resistant patients with MDD, Patent Literature 1 and Non Patent Literature 17
  antidepressant effect of intranasal administration: showed antidepressant effect
[8]
  effective oral dose in patients with depression: 0.5 mg/kg
[8]; starting from several hours after single administration
  duration of clinical antidepressant effects: 1 to 2 days
[8]; treatment-resistant patients with MDD and depressive symptoms of treatment-resistant bipolar disorder, Non Patent Literatures 3 to 5
  antidepressant effects in patients: rapid and robust antidepressant effects

## CN[C@@]1(c2ccccc2Cl)CCCCC1=O.Cl [R(−)-ketamine, R(−)-ketamine hydrochloride]
Control C57/B6 mice [1]; 5, 10, or 20 mg/kg, up to 120 minutes after injection
  locomotion (count/10 min) after injection: did not affect the locomotion
Control C57/B6 mice [2]; 5, 10, or 20 mg/kg
  conditioned place preference test score (CPP score): did not increase the CPP score
[3]; 1 day after injection
  sucrose consumption preference in the SPT: the sucrose consumption preference significantly increased
[3]; 6 days after injection
  sucrose consumption preference in the SPT: significantly restored the sucrose consumption preference
[3]; 10 mg/kg i.p., 1 day after injection
  antidepressant effects compared to S(+)-ketamine, SPT: more potent than those of S(+)-ketamine
[3]; 10 mg/kg i.p., 6 days after injection
  difference between R(−)-ketamine and S(+)-ketamine, SPT: statistically significant
[4]; 27 hours after injection
  immobility time in the TST: markedly reduced the immobility time
[4]; 7 days after injection
  immobility time in the TST: significantly reduced the immobility time
[4]; DEX-treated mice, 10 mg/kg i.p., 27 hours after injection, no significant difference
  antidepressant effects compared to S(+)-ketamine, TST: slightly high antidepressant effects as compared to those of S(+)-ketamine
[5]; 2 days after injection
  immobility time in the TST: markedly reduced the immobility time
  antidepressant effects compared to S(+)-ketamine, TST: significant high antidepressant effects as compared to those of S(+)-ketamine
[5]; 7 days after injection
  immobility time in the TST: significantly reduced the immobility time
  antidepressant effects compared to S(+)-ketamine, TST: significantly high antidepressant effects as compared to S(+)-ketamine
[6]; 2 days after injection
  immobility time in the FST: markedly reduced the immobility time
  antidepressant effects compared to S(+)-ketamine, FST: significant high antidepressant effects as compared to those of S(+)-ketamine
[6]; 7 days after injection
  immobility time in the FST: significantly reduced the immobility time
  antidepressant effects compared to S(+)-ketamine, FST: significantly high antidepressant effects as compared to S(+)-ketamine
[9]; 29 hours after injection
  immobility time in the FST: markedly reduced the immobility time
[9]; 7 days after injection
  immobility time in the FST: significantly reduced the immobility time
[9]; DEX-treated mice, 10 mg/kg i.p., 29 hours after injection, no significant difference
  antidepressant effects compared to S(+)-ketamine, FST: slightly high antidepressant effects as compared to those of S(+)-ketamine
[9]; DEX-treated mice, 10 mg/kg i.p., 7 days after injection
  difference between R(−)-ketamine and S(+)-ketamine, FST immobility time: statistically significant
Healthy volunteers; doses equimolar to psychotomimetic doses of S(+)-ketamine
  psychotic symptoms in PET study: did not produce psychotic symptoms
Healthy volunteers
  cerebral metabolic rates of glucose (CMRglu), PET: tended to decrease CMRglu across brain regions
Control C57/B6 mice [11]
  prepulse inhibition: did not disrupt prepulse inhibition
[13]
  in vivo clearance: rapid in vivo clearance
